# According to ChEMBL document CHEMBL1201862, “PubChem BioAssay data set” (2004):
#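 Growth conditions: 96-well plates. Treatment: test compound, 48 hours, 5 concentrations. Analysis: linear interpolation between bracketing concentrations; unreached endpoints set to highest concentration. Abbreviation: GI50, concentration required for 50% inhibition of growth.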 Calls of active or inactive are those of the source. No stated cut-off is given here; in the data, active = GI50 up to about 1.1 µM and inactive = higher.
# Tests used:
# Experiment in all cases: NCI-60 cell line screen, 48 h
# K562 = tested on: K562
# SR = tested on: SR
# BT-549 = tested on: BT-549
# COLO 205 = tested on: COLO 205
# CCRF-CEM = tested on: CCRF-CEM
# TK-10 = tested on: TK-10
# KM12 = tested on: KM12
# Malme-3M = tested on: Malme-3M
# RPMI-8226 = tested on: RPMI-8226
# SK-MEL-5 = tested on: SK-MEL-5
# UO-31 = tested on: UO-31
# SK-MEL-2 = tested on: SK-MEL-2
# MDA-MB-231 = tested on: MDA-MB-231
# 786-0 = tested on: 786-0
# SK-OV-3 = tested on: SK-OV-3
# NCI/ADR-RES = tested on: NCI/ADR-RES
# SF-268 = tested on: SF-268
# PC-3 = tested on: PC-3
# HCT-116 = tested on: HCT-116
# NCI-H522 = tested on: NCI-H522
# SF-539 = tested on: SF-539
# T47D = tested on: T47D
# UACC-257 = tested on: UACC-257
# SNB-19 = tested on: SNB-19
# HOP-62 = tested on: HOP-62
# EKVX = tested on: EKVX
# OVCAR-4 = tested on: OVCAR-4
# HT-29 = tested on: HT-29
# IGROV-1 = tested on: IGROV-1
# SW-620 = tested on: SW-620
# SK-MEL-28 = tested on: SK-MEL-28
# ACHN = tested on: ACHN
# SN12C = tested on: SN12C
# MOLT-4 = tested on: MOLT-4
# Hs-578T = tested on: Hs-578T
# HCT-15 = tested on: HCT-15
# CAKI-1 = tested on: CAKI-1
# NCI-H23 = tested on: NCI-H23
# SNB-75 = tested on: SNB-75
# LOX IMVI = tested on: LOX IMVI
# M14 = tested on: M14
# OVCAR-8 = tested on: OVCAR-8
# OVCAR-5 = tested on: OVCAR-5
# MDA-MB-435 = tested on: MDA-MB-435
# HCC 2998 = tested on: HCC 2998
# MCF7 = tested on: MCF7
# UACC-62 = tested on: UACC-62
# SF-295 = tested on: SF-295
# U-251 = tested on: U-251
# MDA-N = tested on: MDA-N
# NCI-H460 = tested on: NCI-H460
# OVCAR-3 = tested on: OVCAR-3
# NCI-H226 = tested on: NCI-H226
# A549 = tested on: A549
# DU-145 = tested on: DU-145
# A498 = tested on: A498
# HL-60 = tested on: HL-60
# RXF 393 = tested on: RXF 393
# HOP-92 = tested on: HOP-92
smiles,measurement,setting,value
CC(=O)/C=C(/C=N/O)c1ccccc1,GI50,K562,> 100 µM (inactive)
same,GI50,SR,> 100 µM (inactive)
same,GI50,BT-549,> 100 µM (inactive)
same,GI50,COLO 205,> 100 µM (inactive)
same,GI50,CCRF-CEM,> 100 µM (inactive)
same,GI50,TK-10,> 100 µM (inactive)
same,GI50,KM12,> 100 µM (inactive)
same,GI50,Malme-3M,> 100 µM (inactive)
same,GI50,RPMI-8226,> 100 µM (inactive)
same,GI50,SK-MEL-5,> 100 µM (inactive)
same,GI50,UO-31,> 100 µM (inactive)
same,GI50,SK-MEL-2,56.5 µM (inactive)
same,GI50,MDA-MB-231,> 100 µM (inactive)
same,GI50,786-0,> 100 µM (inactive)
same,GI50,SK-OV-3,> 100 µM (inactive)
same,GI50,NCI/ADR-RES,> 100 µM (inactive)
same,GI50,SF-268,> 100 µM (inactive)
same,GI50,PC-3,> 100 µM (inactive)
same,GI50,HCT-116,> 100 µM (inactive)
same,GI50,NCI-H522,> 100 µM (inactive)
same,GI50,SF-539,> 100 µM (inactive)
same,GI50,T47D,> 100 µM (inactive)
same,GI50,UACC-257,> 100 µM (inactive)
same,GI50,SNB-19,> 100 µM (inactive)
same,GI50,HOP-62,> 100 µM (inactive)
same,GI50,EKVX,> 100 µM (inactive)
same,GI50,OVCAR-4,> 100 µM (inactive)
same,GI50,HT-29,> 100 µM (inactive)
same,GI50,IGROV-1,> 100 µM (inactive)
same,GI50,SW-620,> 100 µM (inactive)
same,GI50,SK-MEL-28,> 100 µM (inactive)
same,GI50,ACHN,> 100 µM (inactive)
same,GI50,SN12C,> 100 µM (inactive)
same,GI50,MOLT-4,> 100 µM (inactive)
same,GI50,Hs-578T,> 100 µM (inactive)
same,GI50,HCT-15,64.3 µM
same,GI50,CAKI-1,> 100 µM (inactive)
same,GI50,NCI-H23,> 100 µM (inactive)
same,GI50,SNB-75,56 µM (inactive)
same,GI50,LOX IMVI,> 100 µM (inactive)
same,GI50,M14,> 100 µM (inactive)
same,GI50,OVCAR-8,> 100 µM (inactive)
same,GI50,OVCAR-5,> 100 µM (inactive)
same,GI50,MDA-MB-435,> 100 µM (inactive)
same,GI50,HCC 2998,> 100 µM (inactive)
same,GI50,MCF7,> 100 µM (inactive)
same,GI50,UACC-62,> 100 µM (inactive)
same,GI50,SF-295,> 100 µM (inactive)
same,GI50,U-251,> 100 µM (inactive)
same,GI50,MDA-N,> 100 µM (inactive)
same,GI50,NCI-H460,> 100 µM (inactive)
same,GI50,OVCAR-3,> 100 µM (inactive)
same,GI50,NCI-H226,> 100 µM (inactive)
same,GI50,A549,> 100 µM (inactive)
COc1ccc(C2c3c[nH]nc3CC3CCCCC32)cc1 (centres undefined),GI50,K562,22.2 µM (inactive)
same,GI50,SR,20.9 µM (inactive)
same,GI50,BT-549,16.6 µM (inactive)
same,GI50,DU-145,13.4 µM (inactive)
same,GI50,CCRF-CEM,21.9 µM (inactive)
same,GI50,TK-10,19.7 µM (inactive)
same,GI50,A498,11 µM (inactive)
same,GI50,Malme-3M,19.5 µM (inactive)
same,GI50,RPMI-8226,19.8 µM (inactive)
same,GI50,SK-MEL-5,15.7 µM (inactive)
same,GI50,UO-31,14 µM (inactive)
same,GI50,SK-MEL-2,17.9 µM (inactive)
same,GI50,MDA-MB-231,14 µM (inactive)
same,GI50,786-0,18.6 µM (inactive)
same,GI50,SF-268,18.2 µM (inactive)
same,GI50,PC-3,14.8 µM (inactive)
same,GI50,HCT-116,17.8 µM (inactive)
same,GI50,NCI-H522,19.8 µM (inactive)
same,GI50,T47D,3.99 µM (inactive)
same,GI50,UACC-257,22.4 µM (inactive)
same,GI50,SNB-19,18.2 µM (inactive)
same,GI50,HOP-62,21.3 µM (inactive)
same,GI50,OVCAR-4,16.7 µM (inactive)
same,GI50,HT-29,23.4 µM (inactive)
same,GI50,IGROV-1,12.7 µM (inactive)
same,GI50,HL-60,23.4 µM (inactive)
same,GI50,SW-620,18.3 µM (inactive)
same,GI50,SK-MEL-28,18.3 µM (inactive)
same,GI50,ACHN,19 µM (inactive)
same,GI50,SN12C,16.9 µM (inactive)
same,GI50,MOLT-4,17.7 µM (inactive)
same,GI50,HCT-15,15.7 µM
same,GI50,CAKI-1,14.2 µM (inactive)
same,GI50,NCI-H23,17.4 µM (inactive)
same,GI50,SNB-75,13.1 µM (inactive)
same,GI50,LOX IMVI,17.9 µM (inactive)
same,GI50,M14,17.6 µM (inactive)
same,GI50,OVCAR-8,17.3 µM (inactive)
same,GI50,OVCAR-5,20.5 µM (inactive)
same,GI50,MDA-MB-435,19.4 µM (inactive)
same,GI50,HCC 2998,20.3 µM (inactive)
same,GI50,MCF7,15.2 µM (inactive)
same,GI50,UACC-62,11.9 µM (inactive)
same,GI50,U-251,15.5 µM (inactive)
same,GI50,MDA-N,14.4 µM (inactive)
same,GI50,NCI-H460,16.5 µM (inactive)
same,GI50,OVCAR-3,15.5 µM (inactive)
same,GI50,NCI-H226,17.4 µM (inactive)
same,GI50,A549,14.5 µM (inactive)
COc1cc(NC(C)=O)ccc1C(=O)NN1C(=O)/C(=C/c2ccco2)N=C1c1ccccc1,GI50,K562,20.5 µM (inactive)
same,GI50,SR,22.5 µM (inactive)
same,GI50,BT-549,> 50 µM (inactive)
same,GI50,COLO 205,> 50 µM (inactive)
same,GI50,DU-145,> 50 µM (inactive)
same,GI50,CCRF-CEM,12.5 µM (inactive)
same,GI50,A498,15.4 µM (inactive)
same,GI50,Malme-3M,> 50 µM (inactive)
same,GI50,RXF 393,> 50 µM (inactive)
same,GI50,RPMI-8226,13.5 µM (inactive)
same,GI50,SK-MEL-5,16 µM (inactive)
same,GI50,UO-31,> 50 µM (inactive)
same,GI50,SK-MEL-2,14.3 µM (inactive)
same,GI50,786-0,24.3 µM (inactive)
same,GI50,SK-OV-3,> 50 µM (inactive)
same,GI50,NCI/ADR-RES,> 50 µM (inactive)
same,GI50,SF-268,> 50 µM (inactive)
same,GI50,PC-3,> 50 µM (inactive)
same,GI50,HCT-116,30.8 µM (inactive)
same,GI50,NCI-H522,24.5 µM (inactive)
same,GI50,SF-539,33.4 µM (inactive)
same,GI50,T47D,> 50 µM (inactive)
same,GI50,HOP-92,> 50 µM (inactive)
same,GI50,SNB-19,> 50 µM (inactive)
same,GI50,HOP-62,21.4 µM (inactive)
same,GI50,EKVX,> 50 µM (inactive)
same,GI50,OVCAR-4,49.5 µM (inactive)
same,GI50,HT-29,36.9 µM (inactive)
same,GI50,IGROV-1,> 50 µM (inactive)
same,GI50,HL-60,13.6 µM (inactive)
same,GI50,SW-620,27.7 µM (inactive)
same,GI50,SK-MEL-28,28.6 µM (inactive)
same,GI50,ACHN,> 50 µM (inactive)
same,GI50,SN12C,> 50 µM (inactive)
same,GI50,MOLT-4,14.5 µM (inactive)
same,GI50,Hs-578T,> 50 µM (inactive)
same,GI50,HCT-15,> 50 µM
same,GI50,CAKI-1,> 50 µM (inactive)
same,GI50,NCI-H23,> 50 µM (inactive)
same,GI50,SNB-75,> 50 µM (inactive)
same,GI50,LOX IMVI,34.2 µM (inactive)
same,GI50,M14,38.2 µM (inactive)
same,GI50,OVCAR-8,> 50 µM (inactive)
same,GI50,OVCAR-5,> 50 µM (inactive)
same,GI50,MDA-MB-435,25 µM (inactive)
same,GI50,MCF7,34.3 µM (inactive)
same,GI50,UACC-62,25.4 µM (inactive)
same,GI50,SF-295,> 50 µM (inactive)
same,GI50,MDA-N,14.9 µM (inactive)
same,GI50,OVCAR-3,> 50 µM (inactive)
same,GI50,A549,> 50 µM (inactive)
